According to US8026282B2, “Phenoxyalkylcarboxylic acid derivatives in the treatment of irritable bowel syndrome” (Medicinova, Inc., priority 2004, dated 2011):
pIC50, pKi: −log10 of the molar value.

Assays:
PDE1 = experiment: Biochemical assay PDE1; conditions: PDE1, Bov
PDE4 = experiment: Biochemical assay PDE4; conditions: PDE4, Hu
PDE5 = PDE5 (Homo sapiens, UniProt O76074); experiment: Biochemical assay PDE5; conditions: PDE5, Hu
PDE6 = target: T1, PDE6 (Bos taurus, UniProt P11541+P23439); experiment: Biochemical assay PDE6; conditions: PDE6, Bov
T1 sequence (P11541 1-859): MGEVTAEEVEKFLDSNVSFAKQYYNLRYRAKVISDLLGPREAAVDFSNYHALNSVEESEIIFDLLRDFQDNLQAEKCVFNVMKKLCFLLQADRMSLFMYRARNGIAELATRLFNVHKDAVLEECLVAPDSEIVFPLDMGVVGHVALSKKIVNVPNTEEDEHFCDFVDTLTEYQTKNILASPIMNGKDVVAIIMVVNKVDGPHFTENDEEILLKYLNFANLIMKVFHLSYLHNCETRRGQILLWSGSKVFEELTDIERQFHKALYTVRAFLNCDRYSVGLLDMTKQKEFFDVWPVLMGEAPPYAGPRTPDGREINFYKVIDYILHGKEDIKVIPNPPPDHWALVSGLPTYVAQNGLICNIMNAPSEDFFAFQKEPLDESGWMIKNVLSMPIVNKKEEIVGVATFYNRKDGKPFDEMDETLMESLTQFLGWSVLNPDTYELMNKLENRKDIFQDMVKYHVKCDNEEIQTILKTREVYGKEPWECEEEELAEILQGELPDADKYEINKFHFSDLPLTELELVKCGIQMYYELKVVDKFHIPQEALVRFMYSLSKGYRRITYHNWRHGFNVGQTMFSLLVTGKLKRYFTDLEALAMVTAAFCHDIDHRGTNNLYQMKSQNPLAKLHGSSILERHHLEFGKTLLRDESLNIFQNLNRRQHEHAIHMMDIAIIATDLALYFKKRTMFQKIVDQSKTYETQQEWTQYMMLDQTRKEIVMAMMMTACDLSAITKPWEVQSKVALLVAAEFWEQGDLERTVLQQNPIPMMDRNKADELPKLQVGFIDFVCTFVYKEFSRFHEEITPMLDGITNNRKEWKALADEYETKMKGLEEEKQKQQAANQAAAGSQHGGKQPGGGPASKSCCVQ
T1 sequence (P23439 1-853): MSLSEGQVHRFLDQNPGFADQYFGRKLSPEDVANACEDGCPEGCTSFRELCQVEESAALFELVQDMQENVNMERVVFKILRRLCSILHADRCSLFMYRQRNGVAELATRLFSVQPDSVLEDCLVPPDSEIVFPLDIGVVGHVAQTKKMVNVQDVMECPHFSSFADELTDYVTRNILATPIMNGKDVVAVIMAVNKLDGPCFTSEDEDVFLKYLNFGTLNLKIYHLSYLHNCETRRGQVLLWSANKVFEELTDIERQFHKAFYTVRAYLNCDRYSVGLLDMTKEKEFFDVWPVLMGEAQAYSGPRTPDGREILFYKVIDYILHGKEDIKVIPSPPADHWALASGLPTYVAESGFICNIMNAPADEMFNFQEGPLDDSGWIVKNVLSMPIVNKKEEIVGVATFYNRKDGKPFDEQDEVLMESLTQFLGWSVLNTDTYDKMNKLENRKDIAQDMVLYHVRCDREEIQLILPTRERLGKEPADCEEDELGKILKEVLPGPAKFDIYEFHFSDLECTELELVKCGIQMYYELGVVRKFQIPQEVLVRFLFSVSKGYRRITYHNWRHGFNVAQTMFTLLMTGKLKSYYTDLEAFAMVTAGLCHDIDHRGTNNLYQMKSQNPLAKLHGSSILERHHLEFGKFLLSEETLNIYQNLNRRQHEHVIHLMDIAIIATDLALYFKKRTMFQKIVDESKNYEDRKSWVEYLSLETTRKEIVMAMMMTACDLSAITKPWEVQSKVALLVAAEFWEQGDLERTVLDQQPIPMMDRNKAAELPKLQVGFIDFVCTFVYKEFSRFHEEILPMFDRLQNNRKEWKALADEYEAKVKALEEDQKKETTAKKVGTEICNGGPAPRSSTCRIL

PLA2-I = PLA2-I (Sus scrofa, UniProt P00592); experiment: Biochemical assay PLA2-I; conditions: Pig
Adrenergic β3 = Adrenergic β3 (Homo sapiens, UniProt P13945); experiment: Biochemical assay Adrenergic β3; format: binding; conditions: Adrenergic β3, Hu; for pKi: value in parentheses
[1] = target: Adrenergic, NE Transporter (Homo sapiens, UniProt P23975); experiment: Biochemical assay Adrenergic, NE Transporter; format: binding; conditions: Hu; for pKi: value in parentheses
Opiate δ = Opiate δ (Homo sapiens, UniProt P41143); experiment: Biochemical assay Opiate δ; format: binding; conditions: Hu; for pKi: value in parentheses
Thromboxane A2 = target: T2, Thromboxane A2 (Homo sapiens, UniProt P21731); experiment: Biochemical assay Thromboxane A2; format: binding; conditions: Thromboxane A2, Hu; for pKi: value in parentheses
T2 sequence (P21731 1-343): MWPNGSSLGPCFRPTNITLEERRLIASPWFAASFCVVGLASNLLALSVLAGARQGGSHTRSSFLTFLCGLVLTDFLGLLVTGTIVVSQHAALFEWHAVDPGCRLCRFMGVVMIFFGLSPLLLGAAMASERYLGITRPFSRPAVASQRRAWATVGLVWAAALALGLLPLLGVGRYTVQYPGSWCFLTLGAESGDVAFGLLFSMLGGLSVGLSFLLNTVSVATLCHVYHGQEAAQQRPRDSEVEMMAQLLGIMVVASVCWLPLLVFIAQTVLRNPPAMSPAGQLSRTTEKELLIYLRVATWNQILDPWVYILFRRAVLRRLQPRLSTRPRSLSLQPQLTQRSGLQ

Chain of Opiate δ (P41143 whole entry): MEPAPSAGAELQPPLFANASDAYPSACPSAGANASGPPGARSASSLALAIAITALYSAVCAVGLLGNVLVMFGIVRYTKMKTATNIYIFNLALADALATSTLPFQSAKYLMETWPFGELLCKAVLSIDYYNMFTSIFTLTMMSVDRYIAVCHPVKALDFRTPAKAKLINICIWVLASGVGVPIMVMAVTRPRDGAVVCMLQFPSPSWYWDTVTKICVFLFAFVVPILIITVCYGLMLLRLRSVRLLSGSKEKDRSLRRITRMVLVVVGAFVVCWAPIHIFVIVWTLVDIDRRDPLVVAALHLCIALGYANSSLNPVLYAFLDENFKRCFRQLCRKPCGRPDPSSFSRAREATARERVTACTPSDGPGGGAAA
Chain of Adrenergic, NE Transporter (P23975 whole entry): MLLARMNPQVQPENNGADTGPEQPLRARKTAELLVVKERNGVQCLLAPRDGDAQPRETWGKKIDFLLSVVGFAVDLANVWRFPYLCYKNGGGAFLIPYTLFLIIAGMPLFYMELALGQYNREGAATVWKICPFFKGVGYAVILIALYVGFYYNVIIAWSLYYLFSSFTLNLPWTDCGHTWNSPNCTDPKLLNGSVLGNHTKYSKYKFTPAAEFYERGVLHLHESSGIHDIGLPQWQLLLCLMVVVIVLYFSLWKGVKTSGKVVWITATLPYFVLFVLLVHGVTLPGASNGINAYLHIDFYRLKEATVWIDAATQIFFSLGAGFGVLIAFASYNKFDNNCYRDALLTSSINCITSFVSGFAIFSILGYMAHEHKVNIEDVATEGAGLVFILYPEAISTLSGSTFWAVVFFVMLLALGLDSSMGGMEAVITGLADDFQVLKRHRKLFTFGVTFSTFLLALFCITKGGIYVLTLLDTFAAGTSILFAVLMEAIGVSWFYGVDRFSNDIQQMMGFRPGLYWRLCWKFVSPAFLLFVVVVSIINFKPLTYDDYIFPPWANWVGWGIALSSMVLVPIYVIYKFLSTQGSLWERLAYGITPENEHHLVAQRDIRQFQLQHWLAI
Chain of Adrenergic β3 (P13945 whole entry): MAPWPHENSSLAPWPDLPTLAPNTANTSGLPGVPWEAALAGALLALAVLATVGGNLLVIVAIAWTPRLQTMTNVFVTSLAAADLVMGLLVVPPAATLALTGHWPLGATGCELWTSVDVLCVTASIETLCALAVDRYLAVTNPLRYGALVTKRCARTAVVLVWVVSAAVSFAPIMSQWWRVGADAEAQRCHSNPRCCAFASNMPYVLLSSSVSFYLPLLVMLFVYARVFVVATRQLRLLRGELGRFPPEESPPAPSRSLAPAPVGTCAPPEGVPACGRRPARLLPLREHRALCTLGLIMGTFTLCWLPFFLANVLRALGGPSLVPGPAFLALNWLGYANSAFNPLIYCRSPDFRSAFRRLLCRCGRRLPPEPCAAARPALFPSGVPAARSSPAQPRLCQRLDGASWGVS
Chain of PLA2-I (P00592 23-146): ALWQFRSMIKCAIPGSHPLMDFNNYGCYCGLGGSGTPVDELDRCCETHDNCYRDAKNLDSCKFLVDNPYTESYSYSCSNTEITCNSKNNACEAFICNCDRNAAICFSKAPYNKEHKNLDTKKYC

| pIC50 (PDE1) | pIC50 (PDE4) | pIC50 (PDE5) | pIC50 (PDE6) | pIC50 (PLA2-I) | pIC50 (Adrenergic β3) | pKi (Adrenergic β3) | pIC50 [1] | pKi [1] | pIC50 (Opiate δ) | pKi (Opiate δ) | pIC50 (Thromboxane A2) | pKi (Thromboxane A2) | SMILES |
| --- | --- | --- | --- | --- | --- | --- | --- | --- | --- | --- | --- | --- | --- |
| 6.13 | 6.19 | 4.90 | 5.69 | 3.85 | 5.33 | 5.46 | 5.46 | 5.46 | 5.98 | 6.44 | 5.47 | 5.66 | CCCc1c(SCCCOc2ccc(C(C)=O)c(OCCCC(=O)O)c2CCC)ccc(C(C)=O)c1O [Compound 1, 4-[6-acetyl-3-[3-(4-acetyl-3-hydroxy-2-propylphenylthio)propoxy]-2-propylphenoxy]butyric acid] |
| 5.51 | 6.52 | 5.07 | 5.76 | 3.61 | 5.96 | 6.09 | 5.69 | 5.69 | 5.52 | 5.97 | 5.41 | 5.60 | CCCc1c(SCCCOc2ccc(C(C)O)c(OCCCC(=O)O)c2CCC)ccc(C(C)=O)c1O (centres unmarked) [Compound 2] |
